Laboratory results: US20200131142A1, “FARNESOID X RECEPTOR AGONISTS AND USES THEREOF” (Metacrine, Inc., priority 2017, published 2020)

molecular target: T1, hFXR (Homo sapiens, UniProt Q96RI1); experiment: In Vitro FXR Assay (TK): hFXR/hRXR TK-ECRE-luc reporter in transfected CV-1 cells; format: cell-based; details: 18 hrs incubation, luminescence, compounds with maximum efficacy <25% of the Fexarmine control classified as '+'
T1 construct: expressed in transfected cells; host or cells: CV-1 cells
T1 sequence (Q96RI1 1-486): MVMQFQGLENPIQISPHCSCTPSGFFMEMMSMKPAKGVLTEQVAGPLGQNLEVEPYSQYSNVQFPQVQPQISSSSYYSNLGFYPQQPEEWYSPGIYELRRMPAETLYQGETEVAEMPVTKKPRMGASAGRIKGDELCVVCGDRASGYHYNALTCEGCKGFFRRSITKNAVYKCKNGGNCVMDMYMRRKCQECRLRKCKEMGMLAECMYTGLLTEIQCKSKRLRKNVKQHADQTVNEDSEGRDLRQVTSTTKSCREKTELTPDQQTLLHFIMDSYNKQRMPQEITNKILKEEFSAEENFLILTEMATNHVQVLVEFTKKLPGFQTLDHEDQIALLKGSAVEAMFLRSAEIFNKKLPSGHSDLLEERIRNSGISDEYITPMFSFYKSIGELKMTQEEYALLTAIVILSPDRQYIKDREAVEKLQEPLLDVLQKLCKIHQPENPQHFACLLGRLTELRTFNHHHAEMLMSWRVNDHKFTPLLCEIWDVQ
T1 sequence (P19793 1-462 partner): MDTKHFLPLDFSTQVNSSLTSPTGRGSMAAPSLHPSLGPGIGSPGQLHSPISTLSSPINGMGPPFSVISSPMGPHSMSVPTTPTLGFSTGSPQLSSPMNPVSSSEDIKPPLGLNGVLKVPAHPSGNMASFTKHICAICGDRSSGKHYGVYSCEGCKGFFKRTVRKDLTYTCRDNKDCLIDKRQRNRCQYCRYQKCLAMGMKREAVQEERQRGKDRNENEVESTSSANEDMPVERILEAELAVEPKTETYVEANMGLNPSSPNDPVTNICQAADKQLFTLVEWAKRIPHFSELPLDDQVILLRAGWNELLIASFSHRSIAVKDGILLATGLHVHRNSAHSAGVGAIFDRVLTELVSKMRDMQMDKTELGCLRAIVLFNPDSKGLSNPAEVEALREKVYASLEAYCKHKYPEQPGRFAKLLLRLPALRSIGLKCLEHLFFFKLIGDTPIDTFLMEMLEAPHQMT
Procedure: Example B-1: In Vitro FXR Assay (TK)
CV-1 cells were seeded at a density of 2,000,000 cells in a T175 flask with DMEM+10% charcoal double-stripped FBS and incubated at 37° C. in 5% CO2 for 18 h (O/N).
After 18 h of incubation, the medium in the T175 flask was changed with fresh DMEM+10% charcoal super-stripped serum. In a polypropylene tube, 2500 μL OptiMEM (Life Technologies, Cat #31985-062) was combined with expression plasmids for hFXR, hRXR, TK-ECRE-luc and pCMX-YFP. The tube was then briefly vortexed and incubated at room temperature for 5 minutes. Transfection reagent (X-tremeGENE HP from Roche, Cat #06 366 236 001) was added to the OptiMEM/plasmid mixture vortexed and incubated at room temperature for 20 minutes. Following incubation, the transfection reagent/DNA mixture complex was added to cells in the T175 flask and the cells were incubated at 37° C. in 5% CO2 for 18 h (O/N).
Compounds were serially diluted in DMSO and added to transfected CV-1 cells. The cells were then incubated for 18 hrs. The next day cells were lysed and examined for luminescence.

Compound | EC50 [nM]
COc1ccc([C@H]2CC[C@H](CN(c3cccc(-c4cnc(-c5ccccc5)s4)c3)C(=O)[C@H]3CC[C@H](O)CC3)CC2)cc1C [Compound 7.10, trans-4-Hydroxy-N-((trans-4-(4-methoxy-3-methylphenyl)cyclohexyl)methyl)-N-(3-(2-phenylthiazol-5-yl)phenyl)cyclohexanecarboxamide] | ≤ 250
COc1ccc([C@H]2CC[C@H](CN(c3cccc(-c4cnc(C5CCC5)s4)c3)C(=O)[C@H]3CC[C@H](O)CC3)CC2)cc1C [Compound 7.08, trans-N-(3-(2-Cyclobutylthiazol-5-yl)phenyl)-4-hydroxy-N-((trans-4-(4-methoxy-3-methylphenyl)cyclohexyl)methyl) cyclohexanecarboxamide] | ≤ 250
COc1ncc(-c2cccc(N(C[C@H]3CC[C@H](c4ccc(OC)c(C)c4)CC3)C(=O)[C@H]3CC[C@H](O)CC3)c2)s1 [Compound 1, trans-4-Hydroxy-N-((trans-4-(4-methoxy-3-methylphenyl)cyclohexyl)methyl)-N-(3-(2-methoxythiazol-5-yl)phenyl)cyclohexanecarboxamide] | ≤ 250
COc1ccc([C@H]2CC[C@H](CN(c3cccc(-c4cnc(N5CCCC5)s4)c3)C(=O)[C@H]3CC[C@H](O)CC3)CC2)cc1C [Compound 6, trans-4-Hydroxy-N-((trans-4-(4-methoxy-3-methylphenyl)cyclohexyl)methyl)-N-(3-(2-(pyrrolidin-1-yl)thiazol-5-yl)phenyl)cyclohexanecarboxamide] | ≤ 250
COc1ccc([C@H]2CC[C@H](CN(c3cccc(-c4cncs4)c3)C(=O)[C@H]3CC[C@H](O)CC3)CC2)cc1C [Compound 6.02, trans-4-Hydroxy-N-((trans-4-(4-methoxy-3-methylphenyl)cyclohexyl)methyl)-N-(3-(thiazol-5-yl)phenyl)cyclohexanecarboxamide] | 250 to 1000
COc1ncc(-c2cccc(N(CC3CCC(c4ccc(OC)c(C)c4)CC3C)C(=O)[C@H]3CC[C@H](O)CC3)c2)s1 (stereo partly drawn) [Compound 12, trans-4-Hydroxy-N-((4-(4-methoxy-3-methylphenyl)-2-methylcyclohexyl)methyl)-N-(3-(2-methoxythiazol-5-yl)phenyl)cyclohexanecarboxamide] | ≤ 250
CCc1ncc(-c2cccc(N(C[C@H]3CC[C@H](c4ccc(OC)c(C)c4)CC3)C(=O)[C@H]3CC[C@H](O)CC3)c2)s1 [Compound 7.05, trans-N-(3-(2-Ethylthiazol-5-yl)phenyl)-4-hydroxy-N-((trans-4-(4-methoxy-3-methylphenyl)cyclohexyl)methyl) cyclohexanecarboxamide] | ≤ 250
COc1ccc([C@H]2CC[C@H](CN(c3cccc(-c4sc(C)nc4C)c3)C(=O)[C@H]3CC[C@H](O)CC3)CC2)cc1C [Compound 7.04, trans-N-(3-(2,4-Dimethylthiazol-5-yl)phenyl)-4-hydroxy-N-((trans-4-(4-methoxy-3-methylphenyl)cyclohexyl)methyl) cyclohexanecarboxamide] | ≥ 1000
COc1ccc([C@H]2CC[C@H](CN(c3cccc(-c4cnc(CCO)s4)c3)C(=O)[C@H]3CC[C@H](O)CC3)CC2)cc1C [Compound 7.20, trans-4-Hydroxy-N-(3-(2-(2-hydroxyethyl)thiazol-5-yl)phenyl)-N-((trans-4-(4-methoxy-3-methylphenyl)cyclohexyl)methyl) cyclohexanecarboxamide] | 250 to 1000
COc1ccc([C@H]2CC[C@H](CN(c3cccc(-c4csc(C)n4)c3)C(=O)[C@H]3CC[C@H](O)CC3)CC2)cc1C [Compound 7.02, trans-4-Hydroxy-N-((trans-4-(4-methoxy-3-methylphenyl)cyclohexyl)methyl)-N-(3-(2-methylthiazol-4-yl)phenyl)cyclohexanecarboxamide] | 250 to 1000
COc1ccc([C@H]2CC[C@H](CN(c3cccc(-c4cnc(C(C)C)s4)c3)C(=O)[C@H]3CC[C@H](O)CC3)CC2)cc1C [Compound 7.06] | ≤ 250

More lines, now with the values ahead:

EC50 [nM] | Compound
≤ 250 | COc1ncc(-c2cccc(N(C[C@H]3CC[C@H](c4ccc(OC)c(C#N)c4)CC3)C(=O)[C@H]3CC[C@H](O)CC3)c2)s1 [Compound 9.06, trans-N-((trans-4-(3-Cyano-4-methoxyphenyl)cyclohexyl)methyl)-4-hydroxy-N-(3-(2-methoxythiazol-5-yl)phenyl)cyclohexanecarboxamide]
≤ 250 | COc1ncc(-c2cccc(N(C[C@H]3CC[C@H](c4ccc(OC)c(C)c4)CC3)C(=O)[C@H]3CC[C@H](OC)CC3)c2)s1 [Compound 9.33, trans-4-Methoxy-N-((trans-4-(4-methoxy-3-methylphenyl)cyclohexyl)methyl)-N-(3-(2-methoxythiazol-5-yl)phenyl)cyclohexanecarboxamide]
≤ 250 | COc1ccc([C@H]2CC[C@H](CN(c3cccc(-c4cnc(OC(F)F)s4)c3)C(=O)[C@H]3CC[C@H](O)CC3)CC2)cc1C [Compound 9.01, trans-N-(3-(2-(Difluoromethoxy)thiazol-5-yl)phenyl)-4-hydroxy-N-((trans-4-(4-methoxy-3-methylphenyl)cyclohexyl)methyl) cyclohexanecarboxamide]
≤ 250 | COc1ccc(C23CCC(CN(c4cccc(C#Cc5nccs5)c4)C(=O)[C@H]4CC[C@H](O)CC4)(CC2)CC3)cc1C [Compound 8.04, trans-4-Hydroxy-N-((4-(4-methoxy-3-methylphenyl)bicyclo[2.2.2]octan-1-yl)methyl)-N-(3-(thiazol-2-ylethynyl)phenyl)cyclohexanecarboxamide]
≤ 250 | COc1ccc([C@H]2CC[C@H](CN(c3cc(-c4cnc(C5CC5)s4)ccn3)C(=O)[C@H]3CC[C@H](O)CC3)CC2)nc1C [Compound 9.20, trans-N-(4-(2-Cyclopropylthiazol-5-yl)pyridin-2-yl)-4-hydroxy-N-((trans-4-(5-methoxy-6-methylpyridin-2-yl)cyclohexyl)methyl)cyclohexanecarboxamide]
≤ 250 | COc1ncc(-c2cccc(N(C[C@H]3CC[C@H](c4ccc(N(C)C)nc4)CC3)C(=O)[C@H]3CC[C@H](O)CC3)c2)s1 [Compound 9.08, trans-N-((trans-4-(6-(Dimethylamino)pyridin-3-yl)cyclohexyl)mtehyl)-4-hydroxy-N-(3-(2-methoxythiazol-5-yl)phenyl)cyclohexanecarboxamide]
≤ 250 | CN(C)c1ccc(C23CCC(CN(c4cccc(-c5cnc(C6CC6)s5)c4)C(=O)[C@H]4CC[C@H](O)CC4)(CC2)CC3)cn1 [Compound 9.13, trans-N-(3-(2-Cyclopropylthiazol-5-yl)phenyl)-N-((4-(6-(dimethylamino)pyridin-3-yl)bicyclo[2.2.2]octan-1-yl)methyl)-4-hydroxycyclohexanecarboxamide]
≤ 250 | COc1ncc(-c2cccc(N(C[C@H]3CC[C@H](c4ccc5c(c4)c(F)nn5C)CC3)C(=O)[C@H]3CC[C@H](O)CC3)c2)s1 [Compound 9.10, trans-N-((trans-4-(3-Fluoro-1-methyl-1H-indazol-5-yl)cyclohexyl)methyl)-4-hydroxy-N-(3-(2-methoxythiazol-5-yl)phenyl)cyclohexanecarboxamide]
≤ 250 | COc1ccc([C@H]2CC[C@H](CN(c3cccc(-c4cnc(C5CC5)s4)c3)C(=O)[C@H]3CC[C@H](O)CC3)CC2)nc1C [Compound 9.19, trans-N-(3-(2-Cyclopropylthiazol-5-yl)phenyl)-4-hydroxy-N-((trans-4-(5-methoxy-6-methylpyridin-2-yl)cyclohexyl)methyl)cyclohexanecarboxamide]
